# Experimental data taken from patent publication US10961231B2, “NTCP inhibitors” (National Institute of Biological Sciences, Beijing, priority 2018, dated 2021).
# Target: T1, NTCP (Homo sapiens, UniProt Q14973)
# T1 sequence (Q14973 1-349): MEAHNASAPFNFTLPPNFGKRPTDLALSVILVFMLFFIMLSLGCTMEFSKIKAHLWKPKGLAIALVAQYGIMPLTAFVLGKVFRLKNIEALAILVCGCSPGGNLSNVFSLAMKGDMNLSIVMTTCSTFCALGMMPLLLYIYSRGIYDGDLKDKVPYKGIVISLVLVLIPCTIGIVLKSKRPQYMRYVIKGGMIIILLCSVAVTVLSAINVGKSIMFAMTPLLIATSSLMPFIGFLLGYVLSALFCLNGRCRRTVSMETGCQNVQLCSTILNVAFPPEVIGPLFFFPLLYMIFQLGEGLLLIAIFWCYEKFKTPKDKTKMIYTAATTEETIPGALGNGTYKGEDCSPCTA
# Assay: [3H]-TCA uptake assay (NTCP inhibition)
# Type: cell-based
# Description: [^3H]-TCA uptake assay. PTH and HepG2-NTCP cells were cultured in PMM for 24 hours to induce NTCP expression. After treated by DMSO or test compounds for 2 hours, the cells were then incubated with 1 μM [^3H]-taurocholate acid dissolved in Na^+ Ringer's buffer (the concentration of Na was 145 mM) for 15 minutes at 37° C. Subsequently, the cells were washed once in phosphate-buffered saline (PBS) and lysed in 50 μL 1% TritonX-100 in H2O for 5 minutes at room temperature. The lysate were totally transferred into a liquid scintillation 96 well plate and mixed with 200 μL liquid scintillation cocktail (Ultima Gold XR, PerkinElmer). Liquid scintillation counting was performed on a PerkinElmer 1450 LSC liquid scintillation counter.
# [1] = IC50, given as a range, marked * (asterisk not explained)
# [2] = given as a range, assay not given
SMILES,IC50 [1] [nM],IC50 [2] [nM],also measured
CCC1NC(=O)C(C2OC(SCc3ccc4c(c3)OCO4)CC2C)N(C)C(=O)C(C(C)C)N(C)C(=O)C(CC(C)C)N(C)C(=O)C(CC(C)C)N(C)C(=O)C(C)NC(=O)C(C)NC(=O)C(CC(C)C)N(C)C(=O)C(C(C)C)NC(=O)C(CC(C)C)N(C)C(=O)CN(C)C1=O (stereo not shown) [Compound 100A-s],1000 to 100000,,
CCC1NC(=O)C(C2OC(Oc3ccc(N4CCOCC4)cc3)CC2C)N(C)C(=O)C(C(C)C)N(C)C(=O)C(CC(C)C)N(C)C(=O)C(CC(C)C)N(C)C(=O)C(C)NC(=O)C(C)NC(=O)C(CC(C)C)N(C)C(=O)C(C(C)C)NC(=O)C(CC(C)C)N(C)C(=O)CN(C)C1=O (stereo not shown) [Compound 3A-o],1000 to 100000,,
CCC1NC(=O)C(C2OC(Oc3cc(Cl)cc(OCc4ccccc4)c3)CC2C)N(C)C(=O)C(C(C)C)N(C)C(=O)C(CC(C)C)N(C)C(=O)C(CC(C)C)N(C)C(=O)C(C)NC(=O)C(C)NC(=O)C(CC(C)C)N(C)C(=O)C(C(C)C)NC(=O)C(CC(C)C)N(C)C(=O)CN(C)C1=O (stereo not shown) [Compound 63-o],1000 to 100000,,
"CCC1NC(=O)C(C2OC(Sc3cccc(OC)c3)CC2C)N(C)C(=O)C(C(C)C)N(C)C(=O)C(CC(C)C)N(C)C(=O)C(CC(C)C)N(C)C(=O)C(C)NC(=O)C(C)NC(=O)C(CC(C)C)N(C)C(=O)C(C(C)C)NC(=O)C(CC(C)C)N(C)C(=O)CN(C)C1=O [Compound 28A, [2-((2R,3R)-5-(3-methoxyphenylthio)-3-methyltetrahydrofuran-2-yl)-2-(methylamino)acetic acid]^1-cyclosporin A]",,1 to 1000,
"CCC1NC(=O)C(C2OC(OCc3cc(F)c(Cl)cc3Cl)CC2C)N(C)C(=O)C(C(C)C)N(C)C(=O)C(CC(C)C)N(C)C(=O)C(CC(C)C)N(C)C(=O)C(C)NC(=O)C(C)NC(=O)C(CC(C)C)N(C)C(=O)C(C(C)C)NC(=O)C(CC(C)C)N(C)C(=O)CN(C)C1=O (single isomer, unassigned) [Compound 101A]",,1 to 1000,
CCC1NC(=O)C(C2OC(Oc3ccc(SCCCS(=O)(=O)O)cc3)CC2C)N(C)C(=O)C(C(C)C)N(C)C(=O)C(CC(C)C)N(C)C(=O)C(CC(C)C)N(C)C(=O)C(C)NC(=O)C(C)NC(=O)C(CC(C)C)N(C)C(=O)C(C(C)C)NC(=O)C(CC(C)C)N(C)C(=O)CN(C)C1=O (stereo not shown) [Compound 10A-o],1000 to 100000,,
"CCCCc1ccc(SC2CC(C)C(C3C(=O)NC(CC)C(=O)N(C)CC(=O)N(C)C(CC(C)C)C(=O)NC(C(C)C)C(=O)N(C)C(CC(C)C)C(=O)NC(C)C(=O)NC(C)C(=O)N(C)C(CC(C)C)C(=O)N(C)C(CC(C)C)C(=O)N(C)C(C(C)C)C(=O)N3C)O2)cc1 [Compound 8A, [2-((2R,3R)-5-(4-butylphenylthio)-3-methyltetrahydrofuran-2-yl)-2-(methylamino)acetic acid]^1-cyclosporin A]",,1 to 1000,
CCC1NC(=O)C(C2OC(Oc3cc(OC)cc(OCc4ccccc4)c3)CC2C)N(C)C(=O)C(C(C)C)N(C)C(=O)C(CC(C)C)N(C)C(=O)C(CC(C)C)N(C)C(=O)C(C)NC(=O)C(C)NC(=O)C(CC(C)C)N(C)C(=O)C(C(C)C)NC(=O)C(CC(C)C)N(C)C(=O)CN(C)C1=O (stereo not shown) [Compound 65-o],,,"IC50 (given as a range, marked * (asterisk not explained)): 1000 to 100000 nM"
CCC1NC(=O)C(C2OC(SC(C)c3cc(Cl)cc(Cl)c3)CC2C)N(C)C(=O)C(C(C)C)N(C)C(=O)C(CC(C)C)N(C)C(=O)C(CC(C)C)N(C)C(=O)C(C)NC(=O)C(C)NC(=O)C(CC(C)C)N(C)C(=O)C(C(C)C)NC(=O)C(CC(C)C)N(C)C(=O)CN(C)C1=O (stereo not shown) [Compound 92A-s],1000 to 100000,,
CCC1NC(=O)C(C2OC(OCc3cccc(N4CCOCC4)c3)CC2C)N(C)C(=O)C(C(C)C)N(C)C(=O)C(CC(C)C)N(C)C(=O)C(CC(C)C)N(C)C(=O)C(C)NC(=O)C(C)NC(=O)C(CC(C)C)N(C)C(=O)C(C(C)C)NC(=O)C(CC(C)C)N(C)C(=O)CN(C)C1=O (stereo not shown) [Compound 95],1000 to 100000,,
CCC1NC(=O)C(C2OC(Oc3ccc(Cl)c(OCCOC)c3)CC2C)N(C)C(=O)C(C(C)C)N(C)C(=O)C(CC(C)C)N(C)C(=O)C(CC(C)C)N(C)C(=O)C(C)NC(=O)C(C)NC(=O)C(CC(C)C)N(C)C(=O)C(C(C)C)NC(=O)C(CC(C)C)N(C)C(=O)CN(C)C1=O (stereo not shown) [Compound 45A-o],1000 to 100000,,
"CCOc1cc(SC2CC(C)C(C3C(=O)NC(CC)C(=O)N(C)CC(=O)N(C)C(CC(C)C)C(=O)NC(C(C)C)C(=O)N(C)C(CC(C)C)C(=O)NC(C)C(=O)NC(C)C(=O)N(C)C(CC(C)C)C(=O)N(C)C(CC(C)C)C(=O)N(C)C(C(C)C)C(=O)N3C)O2)ccc1Cl [Compound 41A, [2-((2R,3R)-5-(4-chloro-3-ethoxyphenylthio)-3-methyltetrahydrofuran-2-yl)-2-(methylamino)acetic acid]^1-cyclosporin A]",,1 to 1000,
"CCC1NC(=O)C(C2OC(OCc3cccc(Cl)c3OC)CC2C)N(C)C(=O)C(C(C)C)N(C)C(=O)C(CC(C)C)N(C)C(=O)C(CC(C)C)N(C)C(=O)C(C)NC(=O)C(C)NC(=O)C(CC(C)C)N(C)C(=O)C(C(C)C)NC(=O)C(CC(C)C)N(C)C(=O)CN(C)C1=O (single isomer, unassigned) [Compound 88B]",,1 to 1000,
CCC1NC(=O)C(C2OC(Oc3ccc(N(C)C)cc3)CC2C)N(C)C(=O)C(C(C)C)N(C)C(=O)C(CC(C)C)N(C)C(=O)C(CC(C)C)N(C)C(=O)C(C)NC(=O)C(C)NC(=O)C(CC(C)C)N(C)C(=O)C(C(C)C)NC(=O)C(CC(C)C)N(C)C(=O)CN(C)C1=O (stereo not shown) [Compound 51A-o],1000 to 100000,,
CCC1NC(=O)C(C2OC(OCc3cc(Cl)c(F)cc3Cl)CC2C)N(C)C(=O)C(C(C)C)N(C)C(=O)C(CC(C)C)N(C)C(=O)C(CC(C)C)N(C)C(=O)C(C)NC(=O)C(C)NC(=O)C(CC(C)C)N(C)C(=O)C(C(C)C)NC(=O)C(CC(C)C)N(C)C(=O)CN(C)C1=O (stereo not shown) [Compound 103],1000 to 100000,,
CCC1NC(=O)C(C2OC(Oc3ccccc3)CC2C)N(C)C(=O)C(C(C)C)N(C)C(=O)C(CC(C)C)N(C)C(=O)C(CC(C)C)N(C)C(=O)C(C)NC(=O)C(C)NC(=O)C(CC(C)C)N(C)C(=O)C(C(C)C)NC(=O)C(CC(C)C)N(C)C(=O)CN(C)C1=O (stereo not shown) [Compound 1B-o],1000 to 100000,,
"CCC1NC(=O)C(C2OC(OC(C)c3cc(Cl)cc(Cl)c3)CC2C)N(C)C(=O)C(C(C)C)N(C)C(=O)C(CC(C)C)N(C)C(=O)C(CC(C)C)N(C)C(=O)C(C)NC(=O)C(C)NC(=O)C(CC(C)C)N(C)C(=O)C(C(C)C)NC(=O)C(CC(C)C)N(C)C(=O)CN(C)C1=O [Compound 92A, [2-((2R,3R)-5-((S)-1-(3,5-dichlorophenyl)ethoxy)-3-methyltetrahydrofuran-2-yl)-2-(methylamino)acetic acid]^1-cyclosporin A]",,1 to 1000,
"CCC1NC(=O)C(C2OC(Sc3cccc(OCCc4ccccc4)c3)CC2C)N(C)C(=O)C(C(C)C)N(C)C(=O)C(CC(C)C)N(C)C(=O)C(CC(C)C)N(C)C(=O)C(C)NC(=O)C(C)NC(=O)C(CC(C)C)N(C)C(=O)C(C(C)C)NC(=O)C(CC(C)C)N(C)C(=O)CN(C)C1=O [Compound 35A, [2-((2R,3R)-3-methyl-5-(3-phenethoxyphenylthio)tetrahydrofuran-2-yl)-2-(methylamino)acetic acid]^1-cyclosporin A]",,1 to 1000,
"CCC1NC(=O)C(C2OC(Sc3cccc(N(C)CC)c3)CC2C)N(C)C(=O)C(C(C)C)N(C)C(=O)C(CC(C)C)N(C)C(=O)C(CC(C)C)N(C)C(=O)C(C)NC(=O)C(C)NC(=O)C(CC(C)C)N(C)C(=O)C(C(C)C)NC(=O)C(CC(C)C)N(C)C(=O)CN(C)C1=O [Compound 49A, [2-((2R,3R)-5-(3-(ethyl(methyl)amino)phenylthio)-3-methyltetrahydrofuran-2-yl)-2-(methylamino)acetic acid]^1-cyclosporin A]",,1 to 1000,
